Test results published in US20240279236A1, “COMPOUNDS AND METHODS OF TREATING TUBERCULOSIS” (Fimbrion Therapeutics, Inc., priority 2021, published 2024).

Tested on: WT Mtb Erdman strain
Test: Microplate Alamar Blue Assay (MABA), Mtb growth inhibition
Assay type: cell-based, Mycobacterium tuberculosis
Conditions: Mycobacterium tuberculosis, ERDMAN, 168 h, Middlebrook 7H9 media, 7 days at 37° C. in 5% CO2

CCc1nc(NCCCc2ccc(-c3c(Cl)cccc3Cl)cc2)c2cc(C)sc2n1 [Example 307, N-(3-(2′,6′-dichloro-[1,1′-biphenyl]-4-yl)propyl)-2-ethyl-6-methylthieno[2,3-d]pyrimidin-4-amine]
IC50: 830 nM

CCc1nc(NCCCc2ccc(-c3cc(Cl)cc(Cl)c3)cc2)c2cc(C)sc2n1 [Example 308, N-(3-(3′,5′-dichloro-[1,1′-biphenyl]-4-yl)propyl)-2-ethyl-6-methylthieno[2,3-d]pyrimidin-4-amine]
IC50: 240 nM

CCc1nc(NCCCc2ccc(-c3ccc(F)c(Cl)c3)cc2)c2cc(C)sc2n1 [Example 309, N-(3-(3′-chloro-4′-fluoro-[1,1′-biphenyl]-4-yl)propyl)-2-ethyl-6-methylthieno[2,3-d]pyrimidin-4-amine]
IC50: 100 nM

CCc1nc(NCCCc2ccc(-c3cc(Cl)ccc3Cl)cc2)c2cc(C)sc2n1 [Example 310, N-(3-(2′,5′-dichloro-[1,1′-biphenyl]-4-yl)propyl)-2-ethyl-6-methylthieno[2,3-d]pyrimidin-4-amine]
IC50: 380 nM

CCc1nc(NCCCc2ccc(-c3ccc(C(F)(F)F)cc3)cc2)c2cc(C)sc2n1 [Example 311, 2-ethyl-6-methyl-N-(3-(4′-(trifluoromethyl)-[1,1′-biphenyl]-4-yl)propyl)thieno [2,3-d]pyrimidin-4-amine]
IC50: 27 nM

Cc1cc2c(NCCCCc3ccc(-c4ccc(OC(F)(F)F)cc4)cc3)nc(-c3ccoc3)nc2s1 [Example 312, 2-(furan-3-yl)-6-methyl-N-(4-(4′-(trifluoromethoxy)-[1,1′-biphenyl]-4-yl)butyl)thieno [2,3-d]pyrimidin-4-amine]
IC50: 380 nM

Cc1cc2c(NCCCc3ccc(-c4ccc(OC(F)(F)F)cc4)cc3F)nc(-c3ccoc3)nc2s1 [Example 313, N-(3-(3-fluoro-(trifluoromethoxy)-[1,1′-biphenyl]-4-′-yl)propyl)-2-(furan-3-yl)-6-methylthieno[2,3-d]pyrimidin-4-amine]
IC50: 50 nM

Cc1cc2c(NCCCc3ccc(-c4ccc([N+](=O)[O-])cc4)cc3)nc(N(C)C)nc2s1 [Example 314, N2,N2,6-trimethyl-N4-(3-(4′-nitro-[1,1′-biphenyl]-4-yl)propyl)thieno [2,3-d]pyrimidine-2,4-diamine]
IC50: 3 nM

Cc1cc2c(NCCCc3ccc(-c4ccc(OC(F)(F)F)cc4)c(F)c3)nc(-c3ccoc3)nc2s1 [Example 315, N-(3-(2-fluoro-4′-(trifluoromethoxy)-[1,1′-biphenyl]-4-yl)propyl)-2-(furan-3-yl)-6-methylthieno[2,3-d]pyrimidin-4-amine]
IC50: 12 nM

COC(=O)c1ccc(-c2ccc(CCCNc3nc(-c4ccoc4)nc4sc(C)cc34)cc2)cc1 [Example 318, methyl 4′-(3-((2-(furan-3-yl)-6-methylthieno[2,3-d]pyrimidin-4-yl)amino)propyl)-[1,1′-biphenyl]-4-carboxylate]
IC50: 20 nM

Cc1cc2c(NCCCc3ccc(-c4ccc(F)cc4)cc3)nc(-c3ccoc3)nc2s1 [Example 322, N-(3-(4′-fluoro-[1,1′-biphenyl]-4-yl)propyl)-2-(furan-3-yl)-6-methylthieno[2,3-d]pyrimidin-4-amine]
IC50: 6 nM

Cc1cc2c(NC/C=C/c3ccc(-c4ccc(OC(F)(F)F)cc4)cc3)nc(-c3ccoc3)nc2s1 [Example 323, 2-(furan-3-yl)-6-methyl-N-[(2E)-3-[4′-(trifluoromethoxy)-[1,1′-biphenyl]-4-yl]prop-2-en-1-yl]thieno[2,3-d]pyrimidin-4-amine]
IC50: 37 nM

Cc1cc2c(NCCCc3ccc(-c4ccnc(C(F)(F)F)c4)cc3)nc(-c3ccoc3)nc2s1 [Example 324, 2-(furan-3-yl)-6-methyl-N-(3-(4-[2-(trifluoromethyl)pyridin-4-yl]phenyl)propyl) thieno[2,3-d]pyrimidin-4-amine]
IC50: 160 nM

Cc1cc2c(NCCCc3ccc(-c4ccc(N(C)C)cc4)cc3)nc(-c3ccoc3)nc2s1 [Example 325, N-(3-[4′-(dimethylamino)-[1,1′-biphenyl]-4-yl]propyl)-2-(furan-3-yl)-6-methylthieno[2,3-d]pyrimidin-4-amine]
IC50: 10 nM

Cc1cc2c(NCCCc3ccc(-c4ccc(OC5CC5)cc4)cc3)nc(-c3ccoc3)nc2s1 [Example 326, N-(3-(4′-cyclopropoxy-[1,1′-biphenyl]-4-yl)propyl)-2-(furan-3-yl)-6-methylthieno[2,3-d]pyrimidin-4-amine]
IC50: 15 nM

Cc1cc2c(NCCCc3ccc(-c4cccc(C#N)c4)cc3)nc(-c3ccoc3)nc2s1 [Example 327, 4′-(3-([2-(furan-3-yl)-6-methylthieno[2,3-d]pyrimidin-4-yl]amino)propyl)-[1,1′-biphenyl]-3-carbonitrile]
IC50: 100 nM

Cc1cc2c(NCCCc3ccc(-c4ccc([N+](=O)[O-])cc4)cc3)nc(-c3ccoc3)nc2s1 [Example 328, 2-(furan-3-yl)-6-methyl-N-(3-(4′-nitro-[1,1′-biphenyl]-4-yl)propyl)thieno [2,3-d]pyrimidin-4-amine]
IC50: < 1 nM

Cc1cc2c(NCCCc3ccc(-c4ccc5c(ccn5C)c4)cc3)nc(-c3ccoc3)nc2s1 [Example 329, 2-(furan-3-yl)-6-methyl-N-(3-[4-(1-methyl-1H-indol-5-yl)phenyl]propyl) thieno[2,3-d]pyrimidin-4-amine]
IC50: 34 nM

Cc1cc2c(NCCCc3ccc(-c4cccs4)cc3)nc(-c3ccoc3)nc2s1 [Example 330, 2-(furan-3-yl)-6-methyl-N-(3-[4-(thiophen-2-yl)phenyl]propyl) thieno[2,3-d]pyrimidin-4-amine]
IC50: < 5 nM

Cc1cc2c(NCCCc3ccc(-c4cc(F)c(Cl)c(F)c4)cc3)nc(-c3ccoc3)nc2s1 [Example 331, N-(3-(4′-chloro-3′,5′-difluoro-[1,1′-biphenyl]-4-yl)propyl)-2-(furan-3-yl)-6-methylthieno[2,3-d]pyrimidin-4-amine]
IC50: 30 nM

Cc1cc2c(NCCCc3ccc(-c4cnoc4)cc3)nc(-c3ccoc3)nc2s1 [Example 332, 2-(furan-3-yl)-6-methyl-N-(3-[4-(1,2-oxazol-4-yl)phenyl]propyl) thieno[2,3-d]pyrimidin-4-amine]
IC50: 80 nM

C#Cc1ccc(-c2ccc(CCCNc3nc(-c4ccoc4)nc4sc(C)cc34)cc2)cc1 [Example 333, N-(3-(4′-ethynyl-[1,1′-biphenyl]-4-yl)propyl)-2-(furan-3-yl)-6-methylthieno[2,3-d]pyrimidin-4-amine]
IC50: 12 nM

Cc1cc2c(NCCCc3ccc(-c4ccsc4)cc3)nc(-c3ccoc3)nc2s1 [Example 334, 2-(furan-3-yl)-6-methyl-N-(3-[4-(thiophen-3-yl)phenyl]propyl) thieno[2,3-d]pyrimidin-4-amine]
IC50: 8 nM

Cc1ccc(-c2ccc(CCCNc3nc(-c4ccoc4)nc4sc(C)cc34)cc2)o1 [Example 335, 2-(furan-3-yl)-6-methyl-N-(3-[4-(5-methylfuran-2-yl)phenyl]propyl) thieno[2,3-d]pyrimidin-4-amine]
IC50: 87 nM

Cc1ccc(-c2ccc(CCCNc3nc(-c4ccoc4)nc4sc(C)cc34)cc2)s1 [Example 336, 2-(furan-3-yl)-6-methyl-N-(3-[4-(5-methylthiophen-2-yl)phenyl]propyl)thieno[2,3-d]pyrimidin-4-amine]
IC50: 15 nM

Cc1cc2c(NCCCc3ccc(-c4ccco4)cc3)nc(-c3ccoc3)nc2s1 [Example 337, N-(3-[4-(furan-2-yl)phenyl]propyl)-2-(furan-3-yl)-6-methylthieno[2,3-d]pyrimidin-4-amine]
IC50: 31 nM

Cc1cc2c(NCCCc3ccc(-c4ccoc4)cc3)nc(-c3ccoc3)nc2s1 [Example 338, 2-(furan-3-yl)-N-(3-[4-(furan-3-yl)phenyl]propyl)-6-methylthieno[2,3-d]pyrimidin-4-amine]
IC50: 15 nM

Cc1cc2c(NCCCc3ccc(-c4ccc(C(F)(F)F)cc4)cc3)nc(-c3ccoc3)nc2s1 [Example 339, 2-(furan-3-yl)-6-methyl-N-(3-[4′-(trifluoromethyl)-[1,1′-biphenyl]-4-yl]propyl)thieno [2,3-d]pyrimidin-4-amine]
IC50: < 15 nM

Cc1cc2c(NCCCc3ccc(-c4cccc([N+](=O)[O-])c4)cc3)nc(-c3ccoc3)nc2s1 [Example 340, 2-(furan-3-yl)-6-methyl-N-(3-(3′-nitro-[1,1′-biphenyl]-4-yl)propyl)thieno [2,3-d]pyrimidin-4-amine]
IC50: 25 nM

Cc1cc2c(NCCCc3ccc(-c4ccc(C(C)(C)O)cc4)cc3)nc(-c3ccoc3)nc2s1 [Example 341, 2-[4′-(3-([2-(furan-3-yl)-6-methylthieno[2,3-d]pyrimidin-4-yl]amino)propy1)-[1,1′-biphenyl]-4-yl]propan-2-ol]
IC50: 140 nM

Cc1cc2c(NCCCc3ccc(-c4ccc5nonc5c4)cc3)nc(-c3ccoc3)nc2s1 [Example 343, N-(3-[4-(2,1,3-benzoxadiazol-5-yl)phenyl]propyl)-2-(furan-3-yl)-6-methylthieno[2,3-d]pyrimidin-4-amine]
IC50: < 15 nM

Cc1cc2c(NCCCc3ccc(-c4cnc(F)c(C)c4)cc3)nc(-c3ccoc3)nc2s1 [Example 344, N-(3-[4-(6-fluoro-5-methylpyridin-3-yl)phenyl]propyl)-2-(furan-3-yl)-6-methylthieno[2,3-d]pyrimidin-4-amine]
IC50: 74 nM

CCc1nc(NCCCc2ccc(-c3ccccn3)cc2)c2cc(C)sc2n1 [Example 368, 2-ethyl-6-methyl-N-(3-(4-(pyridin-2-yl)phenyl)propyl) thieno[2,3-d] pyrimidin-4-amine]
IC50: 210 nM

CCc1nc(NCCCc2ccc(-c3cnc(C(F)(F)F)cn3)cc2)c2cc(C)sc2n1 [Example 369, 2-ethyl-6-methyl-N-(3-(4-(5-(trifluoromethyl)pyrazin-2-yl)phenyl)propyl)thieno[2,3-d]pyrimidin-4-amine]
IC50: 21 nM

CCc1nc(NCCCc2ccc(-c3ccc(C(F)(F)F)cn3)cc2)c2cc(C)sc2n1 [Example 370, 2-ethyl-6-methyl-N-(3-(4-(5-(trifluoromethyl)pyridin-2-yl)phenyl)propyl)thieno[2,3-d]pyrimidin-4-amine]
IC50: 25 nM

CCc1nc(NCCCc2ccc(-c3cnccn3)cc2)c2cc(C)sc2n1 [Example 371, 2-ethyl-6-methyl-N-(3-(4-(pyrazin-2-yl)phenyl)propyl) thieno[2,3-d]pyrimidin-4-amine]
IC50: 150 nM
